Assay results as given in ChEMBL document CHEMBL2203227, “Macrocycles are great cycles: applications, opportunities, and challenges of synthetic macrocycles in drug discovery” (J Med Chem, 2011).
pEC50, pIC50, pKi: −log10 of the molar value. Where a SMILES comes first, the peptide text is derived from it. [ ]: non-standard residue; d: D form. The star is where a group is joined. Hyp = O=C(O)[C@@H]1C[C@@H](O)CN1; Nva = CCC[C@H](N)C(=O)O; Bn = c1ccc(C*)cc1

Tests used:
[1] = tested on: MCF7; assay: cells; details: Homo sapiens
Description: Antiproliferative activity against human MCF7 cells

[2] = Inhibition of HIV protease; parameters: species or system Human immunodeficiency virus
[3] = Inhibition of HCV NS3 protease; parameters: species or system Hepacivirus hominis
[4] = tested on: Hepatitis C virus; assay: microbe, parasite or virus in culture
Description: Antiviral activity against HCV by cell based replicon assay

[5] = molecular target: T1, Renin (Homo sapiens, UniProt P00797); assay: Inhibition of renin
T1 sequence (P00797 whole entry): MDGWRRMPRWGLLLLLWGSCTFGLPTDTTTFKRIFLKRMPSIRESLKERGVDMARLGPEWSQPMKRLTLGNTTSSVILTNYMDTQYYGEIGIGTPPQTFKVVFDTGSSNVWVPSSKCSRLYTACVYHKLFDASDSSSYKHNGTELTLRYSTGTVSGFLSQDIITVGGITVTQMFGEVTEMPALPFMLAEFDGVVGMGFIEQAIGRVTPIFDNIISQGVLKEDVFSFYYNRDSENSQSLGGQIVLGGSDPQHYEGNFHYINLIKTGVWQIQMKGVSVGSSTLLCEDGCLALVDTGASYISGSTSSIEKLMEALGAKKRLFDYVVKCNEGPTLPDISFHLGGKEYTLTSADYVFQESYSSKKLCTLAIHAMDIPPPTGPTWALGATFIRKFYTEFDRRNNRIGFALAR

[6] = molecular target: Prothrombin (Homo sapiens, UniProt P00734); assay: Inhibition of thrombin
[7] = molecular target: Sonic hedgehog protein (Mus musculus) (UniProt Q62226); assay: Inhibition of sonic hedgehog pathway in mouse NIH-3T3 cells relative to control; assay type: cell-based; details: NIH3T3
[8] = Reversible inhibition of HCV NS3 protease; parameters: species or system Hepacivirus hominis
[9] = molecular target: Neprilysin (Homo sapiens, UniProt P08473); assay: Inhibition of neutral endopeptidase
Chain of Neprilysin (P08473 whole entry): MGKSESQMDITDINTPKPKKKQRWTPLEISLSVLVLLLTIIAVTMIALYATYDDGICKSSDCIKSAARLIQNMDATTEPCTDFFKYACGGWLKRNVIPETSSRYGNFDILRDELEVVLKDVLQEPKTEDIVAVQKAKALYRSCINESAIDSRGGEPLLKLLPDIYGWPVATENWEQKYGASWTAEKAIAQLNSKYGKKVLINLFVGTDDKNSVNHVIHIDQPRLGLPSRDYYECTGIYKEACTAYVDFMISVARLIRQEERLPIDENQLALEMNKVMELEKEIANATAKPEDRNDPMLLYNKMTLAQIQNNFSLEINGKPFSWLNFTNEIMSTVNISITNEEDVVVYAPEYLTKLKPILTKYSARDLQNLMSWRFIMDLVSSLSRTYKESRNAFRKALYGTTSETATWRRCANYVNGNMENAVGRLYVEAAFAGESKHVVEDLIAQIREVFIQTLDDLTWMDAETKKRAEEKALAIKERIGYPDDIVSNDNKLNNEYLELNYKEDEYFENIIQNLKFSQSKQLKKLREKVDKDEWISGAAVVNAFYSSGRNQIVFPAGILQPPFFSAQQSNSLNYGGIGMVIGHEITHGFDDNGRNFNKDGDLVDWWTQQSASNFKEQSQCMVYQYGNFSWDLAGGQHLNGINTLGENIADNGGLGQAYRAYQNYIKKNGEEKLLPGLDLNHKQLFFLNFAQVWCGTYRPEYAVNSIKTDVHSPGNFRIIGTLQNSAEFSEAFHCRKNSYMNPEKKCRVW

[10] = Selectivity ratio of IC50 for trypsin to IC50 for thrombin
[11] = Selectivity ratio of IC50 for tPa to IC50 for thrombin
[12] = molecular target: Angiotensin-converting enzyme (Homo sapiens, UniProt P12821); assay: Inhibition of ACE
Chain of Angiotensin-converting enzyme (P12821 whole entry): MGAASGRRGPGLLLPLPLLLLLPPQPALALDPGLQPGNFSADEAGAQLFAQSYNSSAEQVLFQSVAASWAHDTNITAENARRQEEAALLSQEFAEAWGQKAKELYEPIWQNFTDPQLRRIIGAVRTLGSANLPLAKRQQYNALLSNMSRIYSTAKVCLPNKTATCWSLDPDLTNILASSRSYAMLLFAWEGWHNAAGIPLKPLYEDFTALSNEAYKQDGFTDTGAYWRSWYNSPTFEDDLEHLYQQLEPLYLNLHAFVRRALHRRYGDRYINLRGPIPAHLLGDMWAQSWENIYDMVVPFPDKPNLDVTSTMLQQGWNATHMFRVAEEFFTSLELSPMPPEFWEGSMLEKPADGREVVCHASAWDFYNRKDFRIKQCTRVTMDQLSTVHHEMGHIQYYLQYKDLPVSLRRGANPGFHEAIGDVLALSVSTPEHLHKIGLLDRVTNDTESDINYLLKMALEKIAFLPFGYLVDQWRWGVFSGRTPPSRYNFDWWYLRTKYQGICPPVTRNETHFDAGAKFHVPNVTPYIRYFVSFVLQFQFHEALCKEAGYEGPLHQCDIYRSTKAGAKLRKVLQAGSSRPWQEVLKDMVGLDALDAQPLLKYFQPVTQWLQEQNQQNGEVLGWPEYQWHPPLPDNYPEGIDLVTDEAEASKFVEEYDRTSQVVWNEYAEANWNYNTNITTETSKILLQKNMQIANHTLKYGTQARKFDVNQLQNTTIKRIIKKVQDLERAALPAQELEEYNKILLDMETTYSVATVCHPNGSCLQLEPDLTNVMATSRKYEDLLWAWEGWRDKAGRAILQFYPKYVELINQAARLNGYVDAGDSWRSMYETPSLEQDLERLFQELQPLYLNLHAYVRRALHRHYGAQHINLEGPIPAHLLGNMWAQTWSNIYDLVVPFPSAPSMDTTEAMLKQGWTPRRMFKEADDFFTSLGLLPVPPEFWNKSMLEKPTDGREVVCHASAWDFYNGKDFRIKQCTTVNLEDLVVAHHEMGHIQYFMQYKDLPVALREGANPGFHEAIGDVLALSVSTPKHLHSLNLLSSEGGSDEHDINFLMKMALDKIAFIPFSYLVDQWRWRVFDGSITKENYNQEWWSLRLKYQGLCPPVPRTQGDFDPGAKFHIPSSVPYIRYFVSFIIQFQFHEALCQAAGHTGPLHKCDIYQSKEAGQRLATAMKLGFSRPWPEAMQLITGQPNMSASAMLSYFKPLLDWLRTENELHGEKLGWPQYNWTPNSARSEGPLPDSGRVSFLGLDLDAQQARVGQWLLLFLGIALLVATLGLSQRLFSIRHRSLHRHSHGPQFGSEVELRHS

[13] = tested on: Hepatitis C virus; assay: Inhibition of HCV 1b NS3 protease; parameters: species or system Hepatitis C virus subtype 1b
[14] = Inhibition of HCV 1a NS3 protease; parameters: species or system Hepatitis C virus subtype 1a

Molecule `O=S1(=O)NCCCNc2nc(ncc2Br)Nc2cccc1c2` has a pIC50 [1] of 6.70.

`CC[C@H](C)[C@H](NC(=O)[C@@H]1CCCN1C[C@H](O)[C@@H]1Cc2ccc(cc2)OCCCC(=O)N[C@@H](CC(N)=O)C(=O)N1)C(=O)N[C@H](C(N)=O)C(C)C` showed a pKi [2] of 7.92.

`C=C[C@@H]1C[C@]1(NC(=O)[C@@H]1C[C@@H]2CN1C(=O)[C@H](C(C)(C)C)NC(=O)OCCCCCc1ccc3nc(-c4ccccc4)cc(c3c1)O2)C(=O)NS(=O)(=O)C1CC1` showed a pKi [3] greater than 10.80 and a pEC50 [4] of 8.17.

Molecule `COc1ccc(S(=O)(=O)N(CC(C)C)C[C@@H](O)[C@@H]2CCCCCCCCOc3c(O)cccc3C(=O)N2)cc1` has a pIC50 [2] of 6.52 and a pKi [2] of 9.15.

For `CC[C@H](C)[C@H](NC(=O)[C@@H](NC[C@@H]1COCCCCCCCN(C(=O)[C@H](Cc2ccccc2)NC(=O)OC(C)(C)C)[C@@H](C)C(=O)N1)C(C)C)C(=O)N[C@@H](Cc1cnc[nH]1)C(=O)OC`, the pIC50 [5] was 5.57.

`O=C1COc2ccc(Cl)cc2CNC(=O)[C@@H]2CCCN2C(=O)[C@@H](C2CCCCC2)NC(=O)CCN1` showed a pKi [6] of 9.40.

Work on `CC[C@H](C)[C@@H]1NC(=O)[C@@H](NC[C@@H](O)[C@H](Cc2ccc(O)cc2)NC[C@H](C(C)C)N2CCCC2=O)Cc2ccc(cc2)OCCCNC1=O` yielded a pKi [2] of 8.74.

Work on `O=C(C[C@@H]1C/C=C/CCC(=O)O[C@H](c2ccccc2)CNC1=O)NCc1ccc(Cl)cc1` yielded an Emax [7] of 91%.

`CCC[C@H](NC(=O)[C@@H]1[C@H]2CCC[C@H]2CN1C(=O)[C@@H](NC(=O)[C@@H](NC(=O)c1cnccn1)C1CCCCC1)C(C)(C)C)C(=O)C(=O)NC1CC1` gave a pIC50 [4] of 6.45 and a pKi [8] of 8.15.

In the case of `O=C1N[C@H](C(=O)N2C[C@H](O)C[C@H]2C(=O)O)CCCCCC[C@H]1CS`, the pIC50 [9] was 9.10.

`COc1ccc2c(c1)OCC/C=C\CCCCN(C[C@@H](O)[C@H](Cc1ccccc1)NC(=O)O[C@H]1CO[C@H]3OCC[C@H]31)S2(=O)=O` gave a pIC50 [2] of 8.34 and a pKi [2] of 10.92.

Work on `CC[C@H](C)[C@@H]1NC(=O)[C@@H](NC[C@H](O)[C@H](Cc2ccccc2)NC(=O)OC(C)(C)C)Cc2ccc(cc2)Oc2ccc(cc2)C[C@@H](C(=O)OC)NC1=O` yielded a pKi [2] of 7.82.

In the case of `CC[C@H](C)[C@H](NC(=O)[C@@H](C[C@H](O)[C@H](CC1CCCCC1)NC(=O)[C@@H]1Cc2cn(cn2)CC(=O)N2CCC[C@H]2C(=O)N[C@@H](Cc2ccccc2)C(=O)N1)C(C)C)C(=O)NCc1ccccn1`, the pIC50 [5] was 9.54.

With `C[C@H]1COC(=O)[C@@H](N)CC/C=C/C[C@@H](CC(=O)N(CCO)Cc2ccccc2)C(=O)N1` the Emax [7] was 30%.

`O=C1Cn2c(Cl)cnc(c2=O)N[C@@H](Cc2ccccc2)CNCCCNCCOc2ccc(Cl)cc2CN1` gave a pKi [6] of 10.05, a Ratio IC50 [10] of 23000 and a Ratio IC50 [11] of 7100.

Molecule `O=C1N[C@H](C(=O)O)CCCCCc2ccccc2C[C@H]1CS` has a pIC50 [12] of 5.10 and a pIC50 [9] of 8.52.

Molecule `O=C1N[C@H](C(=O)O)CCCCCc2cccc(c2)C[C@H]1CS` has a pIC50 [12] of 8.40 and a pIC50 [9] of 8.10.

Molecule `CC(C)CN(C[C@@H](O)[C@H](Cc1ccccc1)NC(=O)O[C@H]1CO[C@H]2OCC[C@H]21)S(=O)(=O)c1ccc(N)cc1` has a pKi [2] of 10.82.

Molecule `COc1ccc2c(O[C@@H]3C[C@H]4C(=O)N[C@]5(C(=O)O)C[C@H]5/C=C\CCCCC[C@H](NC(=O)OC(C)(C)C)C(=O)N4C3)cc(-c3ccccc3)nc2c1` has a pEC50 [4] of 8.15, a pKi [13] of 9.00 and a pKi [14] of 8.85.

`O=C1COc2ccc(Cl)cc2CNC(=O)[C@@H]2CCCN2C(=O)[C@@H](C2CCCCC2)NC(=O)CCCCN1` gave a pKi [6] of 9.40, a Ratio IC50 [10] greater than 2000 and a Ratio IC50 [11] greater than 2000.

Molecule `CCC[C@H](NC(=O)[C@@H]1C[C@@H](OCc2ccccc2)CN1C(=O)[C@@H](NC(=O)[C@@H](NC(=O)[C@H](CC(=O)O)NC(=O)[C@H](CC(=O)O)NC(C)=O)[C@@H](C)CC)C(C)C)C(=O)O` (Ac-DDIV[Hyp](Bn)[Nva]-OH) has a pIC50 [3] of 5.15.

`CN(C)C(=O)[C@@H](NC(=O)CNC(=O)C(=O)[C@@H]1CCCCCCCCCC[C@H](NC(=O)NC(C)(C)C)C(=O)N2C[C@H]3[C@@H]([C@H]2C(=O)N1)C3(C)C)c1ccccc1` gave a pKi [8] of 8.22.

For `CC[C@H](C)[C@@H]1NC(=O)[C@@H](NC[C@@H](O)[C@@H]2Cc3ccc(cc3)OCCCCC(=O)N[C@@H](C(C)C)C(=O)N2)Cc2ccc(cc2)OCCCNC1=O`, the pKi [2] was 8.52.
